In experiment [1] the test system is SGK-1 dependent phosphorylation of GSK3beta in U2OS cells. The experiment can be described thus: SGK-1 dependent phosphorylation of GSK3beta in U2OS cells overexpressing recombinant SGK-1 and GSK3beta. The format is cell-based, human. The conditions noted are these: U2OS cells, 6 h incubation, ratio of phosphorylated GSK3beta to total GSK3beta, read-out: IC50 values for inhibition of SGK-1 dependent phosphorylation of GSK3beta in U2OS cells.

For experiment [2], the system named is collagen type X (Col10a1) expression in mouse chondrogenic ATDC5 cells. Kind of experiment: Chondrocyte hypertrophic differentiation in mouse chondrogenic ATDC5 cells (collagen type X expression). The experiment is classed as cell-based. The conditions noted are these: Col10a1 expression by quantitative real-time PCR after two weeks of cell culture, read-out: IC50 values for the inhibition of collagen type X expression in mouse chondrogenic ATDC5 cells. From the text:
D) Determination of the effect on chondrocyte hypertrophic differentiation in mouse chondrogenic ATDC5 cells
The ATDC5 cell assay was used as in vitro model to determine the effects of the compounds of the invention on chondrocyte hypertrophic differentiation by monitoring the expression levels of collagen type X (Col10a1) as specific marker of chondrocyte hypertrophy.
Background: ATDC5 cells are a clonal mouse embryonic cell line derived from multipotent AT805 teratocarcinoma cells (Atsumi, T. et al., A chondrogenic cell line derived from a differentiating culture of AT805 teratocarcinoma cells, Cell Differ. Dev. 1990, 30, 109-116). The cells can undergo insulin-dependent chondrogenic cell differentiation entailing distinct differentiation stages starting from an undifferentiated, subconfluent stage, a condensation stage, a cartilage nodule formation stage and a calcification stage within 45 days of in vitro culture. Chondrogenic differentiation can be shown by measuring the expression of the cartilage main collagen (Col2a1) and aggrecan (AGC1) and glycosaminoglycan-staining with Alcian Blue within two weeks after insulin-triggered differentiation, and hypertrophic differentiation can be monitored by the expression of collagen type X (Col10a1), a specific marker of chondrocyte hypertrophy within 21 days of in vitro culture. (Shukunami, C. et al., Chondrogenic Differentiation of Clonal Mouse Embryonic Cell Lne ATDC5 In Vitro: Differentiation-dependent Gene Expression of Parathyroid Hormone (PTH)/PTH-related Peptide Receptor, J. Cell Biol. 1996, 133, 457-468). Growth factor BMP-2 is known to stimulate cell differentiation and can stimulate early and late-phase ATDC5 differentiation (Shukunami, C. et al., Sequential Progression of the Differentiation Program by Bone Morphogenetic Protein-2 in Chondrogenic Cell Line ATDC5, Exp. Cell Res. 1998, 241, 1-11). Thyroid hormone triiodothyronine (T3) promotes hypertrophic differentiation of growth plate chondrocytes (Robson, H. et al., Thyroid Hormone Acts Directly on Growth Plate Chondrocytes to Promote Hypertrophic Differentiation and Inhibit Clonal Expansion and Cell Proliferation, Endocrinology 2000, 141, 3887-3897). Addition of BMP2 and T3 can accelerate ATDC5 hypertrophic differentiation leading to the strong induction Col10a1 expression between 10-14 days. SGK-inhibitors were added to differentiating ATDC5 cells for 14 days and Col10a1 gene expression was quantified to determine effects on chondrocyte hypertrophic differentiation.
Cell assay description: ATDC5 cells were maintained in 300 cm^2 tissue culture flasks in DMEM/Ham's F12+5% FCS supplemented with 10 μg/ml human transferrin, 30 nM sodium selenite, 50 μg/ml kanamycin and grown at 37° C. in 5% CO2 in 95% air. To initiate cell differentiation, 9.9×10^4 cells were plated in 24 well plates and grown for 2 days. Medium was exchanged with DMEM/Ham's F12+5% FCS supplemented with 10 μg/ml human transferrin, 30 nM sodium selenite, 50 μg/ml ascorbic acid and 1 μg/ml BMP2. The assay was run in triplicates, compounds were added in […], and medium changed every 2-3 days including supplementation of compound. At day 7 after initiation of cell differentiation, 1 μM T3 was used as additional supplement in the cell culture.
After two weeks of cell culture, RNA was isolated and converted to cDNA for determination of gene expression by quantitative real-time PCR. Cells were lysed in 600 μl of RLT-buffer (Qiagen) and total RNA was isolated using the RNA-easy Mini RNA isolation Kit (Qiagen) which was run on a Qiacube system (Qiagen) according to the supplier's instructions. RNA was isolated in 30 μl of pure water and the RNA content measured by UV-spectroscopy (Nanodrop, Peqlab). For cDNA synthesis 50 ng total RNA was reverse transcribed using the High Capacity cDNA Reverse Transcription Kit (Applied Biosystems, Product Number 4368813) according to the manufacturer's instructions. […]
A general note: Real-time PCR tracks product formation cycle by cycle.

The target of experiment [3] is recombinant human SGK-1 enzyme (Homo sapiens, UniProt O00141). Kind of experiment: Enzymatic activity assay: SGK-1 substrate peptide phosphorylation (Caliper lab-chip mobility shift). The format is biochemical.
recombinant human SGK-1 enzyme, sequence (O00141 whole entry, looked up): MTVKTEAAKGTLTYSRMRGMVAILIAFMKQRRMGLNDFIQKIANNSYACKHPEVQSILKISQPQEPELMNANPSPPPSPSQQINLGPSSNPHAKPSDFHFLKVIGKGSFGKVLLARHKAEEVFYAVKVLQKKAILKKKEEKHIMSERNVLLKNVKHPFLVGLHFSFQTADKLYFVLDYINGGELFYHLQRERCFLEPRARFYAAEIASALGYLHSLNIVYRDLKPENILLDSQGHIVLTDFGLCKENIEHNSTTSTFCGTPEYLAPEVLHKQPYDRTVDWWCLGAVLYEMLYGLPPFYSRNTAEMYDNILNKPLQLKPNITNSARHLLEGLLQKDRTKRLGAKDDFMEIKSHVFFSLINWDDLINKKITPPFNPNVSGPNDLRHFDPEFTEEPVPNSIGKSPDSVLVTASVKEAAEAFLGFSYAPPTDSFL
Experiment [4] deals with SGK-1 dependent activation of ENaC-currents in A6 cell monolayers. The experiment can be described thus: Functional electrophysiological assay (Ussing chamber): SGK-1 dependent activation of ENaC-currents in A6 cell monolayers. The format is cell-based, Xenopus laevis. The conditions noted are these: hypoosmotic shock 45 min, amiloride-sensitive ΔI'sc, read-out: IC50 values for inhibition of SGK-1 dependent activation of ENaC-currents in A6 cell monolayers. As to the method: C) Functional Electrophysiological Assay for Determination of SGK-1 Dependent Activation of ENaC-Currents in A6 Cell Monolayers
Cells were grown in cell culture flasks (Nunc) at 28° C. in a humidified atmosphere with 4% CO2. The culture medium contained a 7:3 mixture of Leibovitz's L-15 (Sigma-Aldrich)/Coon's (Sigma-Aldrich) media supplemented with 10% fetal bovine serum (PAA), 20% sterile water, 25 mM NaHCO3 (Sigma-Aldrich), 100 U/ml penicillin (PAA) and 100 μg/ml streptomycin (PAA). The osmolality of the medium was 270 mOsml/kg H2O). Cells were detached with accutase (PAA) and seeded for electrophysiological measurements into transwell filter inserts (polyester 0.4 μm pore size, Corning) at a density of 0.4×10^6 cells/filter. Cells were cultivated for 7-10 days, and confluent A6 cell monolayers were identified by repetitive resistance measurements in cell culture medium using an EVOM^2 ohmmeter (World Precision Instruments). Monolayers with a resistance of >10 kOhm were considered confluent. Filters with confluent A6 cells were transferred into a continuously perfused Ussing-chamber, and electrophysiological parameters were measured under open circuit conditions using a transepithelial clamp amplifier (EP Design). Short circuit current (I′sc) was calculated by Ohm's law. […] The pH was adjusted to 8.2. All measurements were done at room temperature.
To evaluate the effects of SGK inhibitors on ENaC-mediated transepithelial currents, A6 monolayers were first equilibrated for 5 min with isoosmotic Ringer solution from both the luminal and basolateral side of the cell layer. Amiloride was applied to the luminal site to establish the basal ENaC-dependent current (I′scbasal). Cell layers were then perfused from the basolateral side for 10 min with compounds in isotonic buffer or control isotonic buffer. SGK signaling leading to increased ENaC activity and subsequent increase in I′sc was stimulated by application of hypoosmotic Ringer-solution for 45 min to both sides of the A6 cell layer. ENaC-dependent I′sc after the hypoosmotic shock (I′schypo) was determined by application of amiloride at the end of the experiment. Total changes of amiloride-sensitive Isc was calculated as ΔI′sc=I′schypo−I′scbasal. […] The inhibition of ΔI′sc by the test compounds was determined relative to the ΔI′sc measured with control monolayers which were not treated with the test compound.

[5] abbreviates: peptide substrate 1 μM, ATP 10 μM, 60 min at 37° C., read-out: IC50 values for inhibition of SGK-1 enzymatic activity.
Where [6] appears, read: Mus musculus, Chondrocyte, 336 h.

Read-outs that look alike come from different tables or passages of the source. A value given as a limit tells only on which side of the number the result lay.

Broadly, the IC50 is the concentration that inhibits the measured activity by half. On to `Cc1n[nH]c2nc(-c3ccc(NS(=O)(=O)c4cc(Cl)ccc4Cl)cc3)nc(OC3CCCNC3)c12` (stereo not drawn) [Example 322], for which the values for the 50% inhibitory concentration (IC50) in experiment [1], in experiment [2] and in experiment [3] (setting [5]) were 26 nM, 8 nM and 2.6 nM, respectively.

Consider `O=S(=O)(Nc1ccc(-c2nc(OC3CCC(O)CC3)c3cn[nH]c3n2)cc1F)c1cc(Cl)ccc1Cl` (stereo not drawn) [Example 439], for which the IC50 in experiment [1] is 110 nM; in experiment [2], 44 nM; in experiment [3] (setting [5]), 2.5 nM.

Take `CC(C)COc1nc(-c2ccc(NS(=O)(=O)c3cc(F)ccc3F)cc2)nc2[nH]nc(N)c12` [Example 328]: the IC50 in experiment [1] was found to be 150 nM; in experiment [2] it was 94 nM; in experiment [3] (setting [5]), 170 nM.

Consider `Cc1n[nH]c2nc(-c3ccc(NS(=O)(=O)c4cc(F)ccc4F)cc3)nc(OC3CCCNC3)c12` (stereo not drawn) [Example 321], for which the concentration for half-maximal inhibition (IC50) in experiment [1] worked out at 38 nM; in experiment [2], 680 nM; in experiment [3] (setting [5]), 6.9 nM.

`Cc1nc(-c2ccc(NS(=O)(=O)c3cc(Cl)c(F)cc3F)cc2)nc2[nH]nc(N)c12` [Example 447, N-[4-(3-Amino-4-methyl-1H-pyrazolo[3,4-d]pyrimidin-6-yl)-phenyl]-5-chloro-2,4-difluoro-benzenesulfonamide]: the IC50 was 340 nM in experiment [1] (Homo sapiens); 330 nM in experiment [2] (setting [6]); 60 nM in experiment [4] (Xenopus laevis, INA-6, 0.75 h); below 1.5 nM in experiment [3] (read-out: IC50 values for inhibition of SGK-1 enzymatic activity, peptide substrate 1 μM, ATP 10 μM, 60 min at 37° C.).

Consider `Cc1n[nH]c2nc(-c3ccc(NS(=O)(=O)c4cc(F)ccc4F)cc3)nc(OC3CCN(C(C)C)CC3)c12` [Example 349], for which the IC50 was 380 nM in experiment [2], 3200 nM in experiment [4] and 8.4 nM in experiment [3] (setting [5]).

On to `Cc1nc(-c2ccc(NS(=O)(=O)c3cc(Cl)ccc3C#N)cc2)nc2[nH]nc(N)c12` [Example 465], for which the IC50 was 1200 nM in experiment [1], 700 nM in experiment [2] and below 1.5 nM in experiment [3] (setting [5]).

For the molecule `COc1ccc(Cl)c(S(=O)(=O)Nc2ccc(-c3ncc4c(N)n[nH]c4n3)cc2)c1` [Example 461], the figures for the IC50 in experiment [1], in experiment [4] and in experiment [3] (setting [5]) were 260 nM, 180 nM and below 1.5 nM, respectively.

Consider `CC(C)COc1nc(-c2ccc(NS(=O)(=O)c3cc(Cl)ccc3Cl)cc2)nc2[nH]nc(N)c12` [Example 310], for which the IC50 was 220 nM in experiment [1], 10000 nM in experiment [4] and 130 nM in experiment [3] (setting [5]).

On to `N#Cc1ccc(Cl)cc1S(=O)(=O)Nc1ccc(-c2ncc3c(N)n[nH]c3n2)cc1` [Example 446, N-[4-(3-Amino-1H-pyrazolo[3,4-d]pyrimidin-6-yl)-phenyl]-5-chloro-2-cyano-benzenesulfonamide], for which the half-maximal inhibitory concentration (IC50) in experiment [1] (Homo sapiens) was determined as 3700 nM; in experiment [2] (setting [6]) it was 550 nM; in experiment [4] (Xenopus laevis, INA-6, 0.75 h) it was 190 nM.

For the molecule `Cc1nc(-c2ccc(NS(=O)(=O)c3cc(Cl)ccc3Cl)cc2)nc2[nH]nc(N3CCC4(CC3)COC4)c12` [Example 496], the IC50 stood at 7000 nM in experiment [1], 140 nM in experiment [2] and 6.2 nM in experiment [3] (setting [5]).

With `Cc1n[nH]c2nc(-c3ccc(NS(=O)(=O)c4cc(Cl)ccc4F)cc3)nc(OC3CCN(C(C)C)CC3)c12` [Example 346], the IC50 came to 66 nM in experiment [2], 2000 nM in experiment [4] and 3.2 nM in experiment [3] (setting [5]).

On to `Nc1n[nH]c2cc(-c3ccc(NS(=O)(=O)c4cc(Cl)ccc4Cl)cc3)ncc12` [Example 556], for which the IC50 in experiment [1] was 1700 nM; in experiment [4], 2000 nM; in experiment [3] (setting [5]) it was 1.7 nM.

With `O=S(=O)(Nc1ccc(-c2nc(OC3CCC(O)CC3)c3cn[nH]c3n2)cc1)c1cc(Cl)ccc1F` (stereo not drawn) [Example 3, 5-Chloro-2-fluoro-N-{4-[4-(4-hydroxy-cyclohexyloxy)-1H-pyrazolo[3,4-d]pyrimidin-6-yl]-phenyl}-benzenesulfonamide], the half-maximal inhibitory concentration (IC50) in experiment [2] (setting [6]) stood at 52 nM; in experiment [4] (Xenopus laevis, INA-6, 0.75 h), 3400 nM.

Take `O=S(=O)(Nc1ccc(-c2nc(OC3CCC(O)CC3)c3cn[nH]c3n2)cc1F)c1cc(Cl)ccc1F` (stereo not drawn) [Example 440]: the IC50 was 240 nM in experiment [1], 81 nM in experiment [2] and below 1.5 nM in experiment [3] (setting [5]).

As to `Cc1ccc(C#N)c(S(=O)(=O)Nc2ccc(-c3nc(OC4CCC(O)CC4)c4c(C)n[nH]c4n3)cc2)c1` (stereo not drawn) [Example 96], the IC50 was 740 nM in experiment [1], 33 nM in experiment [2] and below 1.5 nM in experiment [3] (setting [5]).

For `Cc1ccc(F)c(S(=O)(=O)Nc2ccc(-c3nc(OCC(C)C)c4c(N)n[nH]c4n3)cc2)c1` [Example 317], the values for the IC50 in experiment [1], in experiment [4] and in experiment [3] (setting [5]) were 210 nM, 10000 nM and 11 nM, respectively.

As to `Nc1n[nH]c2cc(-c3ccc(NS(=O)(=O)c4cc(Cl)c(F)cc4F)cc3)ncc12` [Example 555], the IC50 in experiment [1] is 3800 nM; in experiment [4] it was 600 nM; in experiment [3] (setting [5]), below 1.5 nM.

Regarding `Cc1ccc(C#N)c(S(=O)(=O)Nc2ccc(-c3ncc4c(N)n[nH]c4n3)cc2)c1` [Example 453], the results for the IC50 in experiment [1], in experiment [2] and in experiment [3] (setting [5]) were 2100 nM, 550 nM and 1.6 nM, respectively.
